Where only a bound is given, the exact number is not on record here.

From ChEMBL document CHEMBL1141467, “Multi-target-directed ligands to combat neurodegenerative diseases” (J Med Chem, 2008) come the findings set out here.

The species entered for series [1] is Homo sapiens. Description: Selectivity for human Ach over human BuCh.
Series [2] can be described thus: Protection against ROS induced by oxidative stress at 10 uM in neuronal cells. It is filed as functional.
For series [3], the target named is T1, Acetylcholinesterase (Homo sapiens, UniProt P22303).
T1 sequence (P22303 whole entry): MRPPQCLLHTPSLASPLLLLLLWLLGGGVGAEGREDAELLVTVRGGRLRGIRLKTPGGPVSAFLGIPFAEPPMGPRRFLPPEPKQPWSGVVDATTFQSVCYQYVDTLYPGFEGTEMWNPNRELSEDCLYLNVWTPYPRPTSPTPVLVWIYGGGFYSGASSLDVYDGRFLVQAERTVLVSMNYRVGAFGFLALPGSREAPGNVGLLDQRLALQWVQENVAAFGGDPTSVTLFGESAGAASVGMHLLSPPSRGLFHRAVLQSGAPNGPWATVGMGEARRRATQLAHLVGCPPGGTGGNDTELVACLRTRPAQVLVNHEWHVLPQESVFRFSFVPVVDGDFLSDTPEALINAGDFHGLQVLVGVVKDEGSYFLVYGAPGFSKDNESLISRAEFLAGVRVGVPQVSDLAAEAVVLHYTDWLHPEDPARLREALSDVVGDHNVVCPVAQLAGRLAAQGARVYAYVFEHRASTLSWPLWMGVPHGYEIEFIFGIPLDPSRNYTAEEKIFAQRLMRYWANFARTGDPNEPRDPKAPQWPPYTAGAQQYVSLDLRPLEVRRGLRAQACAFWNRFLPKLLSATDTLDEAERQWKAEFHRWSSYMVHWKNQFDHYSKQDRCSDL
Description: Inhibition of human AchE-induced amyloid beta aggregation
Series [4] deals with T1, Acetylcholinesterase. This is another data set of the same source.
In series [5] the target is T2, Amine oxidase [flavin-containing] B (Homo sapiens, UniProt P27338).
T2 sequence (P27338 whole entry): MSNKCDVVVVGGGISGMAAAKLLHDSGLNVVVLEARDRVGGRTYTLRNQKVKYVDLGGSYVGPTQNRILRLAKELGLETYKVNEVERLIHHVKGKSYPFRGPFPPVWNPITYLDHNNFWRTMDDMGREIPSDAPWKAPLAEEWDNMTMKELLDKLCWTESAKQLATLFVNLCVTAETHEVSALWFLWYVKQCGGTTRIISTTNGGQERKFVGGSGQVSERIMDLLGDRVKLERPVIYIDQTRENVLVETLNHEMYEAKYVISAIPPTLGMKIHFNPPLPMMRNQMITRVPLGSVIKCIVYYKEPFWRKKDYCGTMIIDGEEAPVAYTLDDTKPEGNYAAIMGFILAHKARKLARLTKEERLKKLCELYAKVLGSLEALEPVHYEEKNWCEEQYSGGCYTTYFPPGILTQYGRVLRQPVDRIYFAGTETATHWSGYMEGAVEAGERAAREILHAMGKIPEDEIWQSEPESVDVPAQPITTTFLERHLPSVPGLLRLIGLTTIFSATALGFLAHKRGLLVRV

Series [6] concerns the target T3, Amine oxidase [flavin-containing] A (Homo sapiens, UniProt P21397).
T3 sequence (P21397 whole entry): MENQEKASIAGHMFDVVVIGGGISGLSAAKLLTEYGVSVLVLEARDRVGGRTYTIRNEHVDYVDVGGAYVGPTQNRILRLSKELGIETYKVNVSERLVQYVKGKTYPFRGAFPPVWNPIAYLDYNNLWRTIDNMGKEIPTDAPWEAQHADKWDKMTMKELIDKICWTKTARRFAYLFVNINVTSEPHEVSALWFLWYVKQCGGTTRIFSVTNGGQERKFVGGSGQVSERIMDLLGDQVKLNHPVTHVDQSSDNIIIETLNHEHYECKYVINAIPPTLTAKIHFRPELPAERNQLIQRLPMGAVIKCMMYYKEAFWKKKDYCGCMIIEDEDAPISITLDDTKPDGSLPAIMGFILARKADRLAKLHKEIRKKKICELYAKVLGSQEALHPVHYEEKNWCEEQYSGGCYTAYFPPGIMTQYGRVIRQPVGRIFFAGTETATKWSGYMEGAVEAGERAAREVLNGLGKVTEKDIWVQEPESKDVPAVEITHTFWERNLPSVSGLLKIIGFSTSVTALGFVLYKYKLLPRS

Series [7] is described as follows: Inhibition of amyloid beta aggregation at 100 uM. Set-up: scale not given: the % may be the effect or the level left.
Series [8] is described as follows: Inhibition of metal-induced amyloid beta aggregation at 50 uM. On the set-up: scale not given: the % may be the effect or the level left.
Series [9] has as its target Sodium-dependent serotonin transporter (Homo sapiens, UniProt P31645).
Series [10] concerns the target T4, 5-hydroxytryptamine receptor 3A (Homo sapiens, UniProt P46098).
T4 sequence (P46098 whole entry): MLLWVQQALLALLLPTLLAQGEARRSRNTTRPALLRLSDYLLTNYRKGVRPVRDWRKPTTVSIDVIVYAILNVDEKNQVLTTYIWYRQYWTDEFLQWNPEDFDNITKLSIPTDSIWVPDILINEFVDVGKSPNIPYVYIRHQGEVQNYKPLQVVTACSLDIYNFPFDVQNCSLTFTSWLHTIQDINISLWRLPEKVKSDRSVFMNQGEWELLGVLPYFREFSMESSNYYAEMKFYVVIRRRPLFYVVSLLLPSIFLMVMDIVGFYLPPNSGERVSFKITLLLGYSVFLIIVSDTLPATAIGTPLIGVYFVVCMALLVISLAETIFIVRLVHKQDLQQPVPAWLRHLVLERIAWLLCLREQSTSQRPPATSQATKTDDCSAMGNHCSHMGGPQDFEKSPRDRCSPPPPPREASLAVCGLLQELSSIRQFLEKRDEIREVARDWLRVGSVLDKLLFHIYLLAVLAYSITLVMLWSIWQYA
Description: Binding affinity to 5HT3 receptor

In series [11] the target is D(3) dopamine receptor (Homo sapiens, UniProt P35462). Description: Binding affinity to human dopaminergic D3 receptor.
D(3) dopamine receptor, sequence (P35462 whole entry): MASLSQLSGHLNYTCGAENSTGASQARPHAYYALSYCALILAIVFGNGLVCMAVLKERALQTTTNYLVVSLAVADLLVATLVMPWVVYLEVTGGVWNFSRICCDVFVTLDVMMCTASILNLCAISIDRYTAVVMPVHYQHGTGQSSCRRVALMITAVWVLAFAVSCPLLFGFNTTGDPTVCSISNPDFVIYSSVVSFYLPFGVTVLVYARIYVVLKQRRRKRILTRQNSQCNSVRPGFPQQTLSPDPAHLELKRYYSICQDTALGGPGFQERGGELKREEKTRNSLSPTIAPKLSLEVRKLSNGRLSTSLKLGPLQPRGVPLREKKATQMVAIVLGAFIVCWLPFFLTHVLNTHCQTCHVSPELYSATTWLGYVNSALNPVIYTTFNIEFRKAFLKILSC
The target in series [12] is T5, 5-hydroxytryptamine receptor 1A (Homo sapiens, UniProt P08908).
T5 sequence (P08908 whole entry): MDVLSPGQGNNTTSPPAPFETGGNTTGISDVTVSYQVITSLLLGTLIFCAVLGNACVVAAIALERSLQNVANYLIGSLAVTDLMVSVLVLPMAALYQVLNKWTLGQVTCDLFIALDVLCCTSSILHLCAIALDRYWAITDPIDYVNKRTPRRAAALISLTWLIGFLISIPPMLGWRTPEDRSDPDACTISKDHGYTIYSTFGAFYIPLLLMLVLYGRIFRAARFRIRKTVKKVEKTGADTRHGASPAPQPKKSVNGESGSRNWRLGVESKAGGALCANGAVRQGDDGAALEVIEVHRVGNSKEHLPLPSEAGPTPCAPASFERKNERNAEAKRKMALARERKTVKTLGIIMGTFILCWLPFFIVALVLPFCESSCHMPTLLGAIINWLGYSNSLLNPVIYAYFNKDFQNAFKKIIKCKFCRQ
Description: Binding affinity to human 5HT1A receptor.

Series [13] concerns the target T6, D(4) dopamine receptor (Homo sapiens, UniProt P21917).
T6 sequence (P21917 whole entry): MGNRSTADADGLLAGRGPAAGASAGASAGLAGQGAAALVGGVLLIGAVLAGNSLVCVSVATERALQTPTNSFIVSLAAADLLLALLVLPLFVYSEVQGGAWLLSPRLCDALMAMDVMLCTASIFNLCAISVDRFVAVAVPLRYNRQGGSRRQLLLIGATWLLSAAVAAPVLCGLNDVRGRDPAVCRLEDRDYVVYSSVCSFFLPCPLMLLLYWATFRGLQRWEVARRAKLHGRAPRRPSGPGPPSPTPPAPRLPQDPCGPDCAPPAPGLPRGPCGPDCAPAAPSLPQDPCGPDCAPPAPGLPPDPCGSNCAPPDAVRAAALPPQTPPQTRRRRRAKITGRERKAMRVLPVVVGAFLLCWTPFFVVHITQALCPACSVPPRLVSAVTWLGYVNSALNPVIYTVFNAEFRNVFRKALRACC
Description: Binding affinity to human dopaminergic D4 receptor.

Series [14] concerns the target D(2) dopamine receptor (Homo sapiens, UniProt P14416). Nature of the series: Binding affinity to human dopaminergic D2 receptor.
Series [15] deals with T1, Acetylcholinesterase. Description: Inhibition of human AchE induced amyloid beta42 aggregation.
In series [16] the target is Beta-secretase 1 (Homo sapiens, UniProt P56817). Description: Inhibition of BACE1.
Beta-secretase 1, sequence (P56817 whole entry): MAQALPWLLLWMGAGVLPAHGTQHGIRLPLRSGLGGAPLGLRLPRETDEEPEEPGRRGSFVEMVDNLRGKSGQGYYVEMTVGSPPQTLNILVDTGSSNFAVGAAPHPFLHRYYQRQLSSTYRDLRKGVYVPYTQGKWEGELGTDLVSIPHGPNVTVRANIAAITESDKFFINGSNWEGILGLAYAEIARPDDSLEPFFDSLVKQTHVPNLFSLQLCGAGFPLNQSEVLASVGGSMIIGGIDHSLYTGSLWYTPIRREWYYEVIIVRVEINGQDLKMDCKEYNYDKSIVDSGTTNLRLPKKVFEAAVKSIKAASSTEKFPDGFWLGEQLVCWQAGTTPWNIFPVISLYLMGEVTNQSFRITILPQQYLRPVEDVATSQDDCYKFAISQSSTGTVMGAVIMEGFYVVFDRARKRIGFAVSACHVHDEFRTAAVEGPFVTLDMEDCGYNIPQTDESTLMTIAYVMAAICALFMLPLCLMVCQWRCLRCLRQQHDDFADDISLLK
For series [17], the target named is T7, Muscarinic acetylcholine receptor M2 (Homo sapiens) (UniProt P08172).
T7 sequence (whole entry): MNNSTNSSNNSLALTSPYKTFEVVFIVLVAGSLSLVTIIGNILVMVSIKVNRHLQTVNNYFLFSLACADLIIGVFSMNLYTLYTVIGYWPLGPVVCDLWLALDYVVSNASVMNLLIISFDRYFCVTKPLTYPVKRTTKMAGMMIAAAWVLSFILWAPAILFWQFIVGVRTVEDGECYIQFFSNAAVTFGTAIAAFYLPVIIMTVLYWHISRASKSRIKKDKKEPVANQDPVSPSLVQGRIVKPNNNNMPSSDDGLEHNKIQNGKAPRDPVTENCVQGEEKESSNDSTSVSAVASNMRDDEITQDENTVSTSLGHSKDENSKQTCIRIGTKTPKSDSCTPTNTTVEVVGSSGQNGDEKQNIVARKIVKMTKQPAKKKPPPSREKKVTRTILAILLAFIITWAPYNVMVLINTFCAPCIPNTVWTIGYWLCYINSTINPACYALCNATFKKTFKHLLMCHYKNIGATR
Description: Antagonist activity at muscarinic M2 receptor. The series is classed as functional.

Series [18] in a line: Inhibition of zinc-induced amyloid beta aggregation at 25 uM.
Substrate in series [19]: CCN(CCCCCCNC1=CC(=O)C(NCCCCCCN(CC)Cc2ccccc2OC)=CC1=O)Cc1ccccc1OC
Description: Binding affinity to NQQ1.

D(2) dopamine receptor, sequence (P14416 whole entry): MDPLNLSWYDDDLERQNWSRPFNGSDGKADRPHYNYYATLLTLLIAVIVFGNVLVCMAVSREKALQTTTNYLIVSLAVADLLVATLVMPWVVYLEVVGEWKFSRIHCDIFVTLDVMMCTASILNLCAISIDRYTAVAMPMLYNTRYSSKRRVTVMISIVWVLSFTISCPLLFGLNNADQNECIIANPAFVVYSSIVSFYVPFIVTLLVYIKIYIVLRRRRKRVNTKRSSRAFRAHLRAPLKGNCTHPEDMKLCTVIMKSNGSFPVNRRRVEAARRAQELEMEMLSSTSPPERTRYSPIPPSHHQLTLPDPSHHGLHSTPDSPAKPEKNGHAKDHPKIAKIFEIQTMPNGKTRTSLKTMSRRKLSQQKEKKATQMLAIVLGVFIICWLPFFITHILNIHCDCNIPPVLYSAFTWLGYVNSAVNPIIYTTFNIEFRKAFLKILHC
Sodium-dependent serotonin transporter, sequence (P31645 whole entry): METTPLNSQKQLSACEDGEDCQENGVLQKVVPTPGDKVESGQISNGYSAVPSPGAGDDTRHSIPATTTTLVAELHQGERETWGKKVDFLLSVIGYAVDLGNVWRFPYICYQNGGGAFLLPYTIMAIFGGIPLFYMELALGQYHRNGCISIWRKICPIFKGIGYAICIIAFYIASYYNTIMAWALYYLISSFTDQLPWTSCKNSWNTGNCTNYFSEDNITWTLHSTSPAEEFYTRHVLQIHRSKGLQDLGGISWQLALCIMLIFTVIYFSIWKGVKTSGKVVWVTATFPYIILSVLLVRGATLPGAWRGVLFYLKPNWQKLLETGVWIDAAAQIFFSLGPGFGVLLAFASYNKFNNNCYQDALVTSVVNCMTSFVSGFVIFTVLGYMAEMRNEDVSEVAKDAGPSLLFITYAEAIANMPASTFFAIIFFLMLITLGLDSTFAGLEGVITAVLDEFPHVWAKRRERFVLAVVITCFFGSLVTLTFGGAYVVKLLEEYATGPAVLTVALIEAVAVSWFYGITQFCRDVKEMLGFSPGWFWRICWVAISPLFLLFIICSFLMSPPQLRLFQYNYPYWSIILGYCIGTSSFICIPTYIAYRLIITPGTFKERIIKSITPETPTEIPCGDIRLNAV

For the molecule `O=C(CCCCCCNc1c2c(nc3cc(Cl)cc(Cl)c13)CCCC2)NCCc1c[nH]c2ccccc12`, in series [1], the Selectivity ratio was found to be 1000.

In [2], `O=C(CCCCC1CCSS1)NCCCNc1c2c(nc3cc(Cl)ccc13)CCCC2` (stereo not given) [LIPOCRINE] had an Activity of 62%. Moreover, the results for the IC50 in [3] and in series [4] were 45000 nM and 0.25 nM, respectively.

As to `C#CCN(C)C(C)Cc1cccc(OC(=O)N(C)CCCCCC)c1` (stereo not given), the values for the IC50 in series [5] and in [6] were 1500 nM and 20000 nM, respectively.

Turning to `O=C(CCc1c[nH]c2ccccc12)NCCCCCCCNc1c2c(nc3cc(Cl)ccc13)CCCC2`, in series [7], the Activity stood at 65%. For the same molecule, the IC50 in series [3] came out at 9000 nM; in [4], 0.06 nM.

With `Cc1c(O[C@@H]2O[C@H](CO)[C@@H](O)[C@H](O)[C@H]2O)c(=O)ccn1C`, in series [8], the Activity is > 50%.

Take `CCN(C)C(=O)Oc1cccc([C@H](C)N(C)C)c1` [RIVASTIGMINE]: in [9], the IC50 was > 1000 nM.

For the molecule `C#CCN(C)Cc1ccnc2c(O)cccc12`, the figures for the IC50 in [5] and in series [6] were 57 nM and 37 nM, respectively.

As usually defined, the Ki is the equilibrium dissociation constant of an inhibitor or competing ligand from its target. Molecule `Cc1c(N2CCN(C)CC2)nc2ccccc2c1C(=O)NCCCCCCCNc1c2c(nc3ccccc13)CCCC2` registered a Ki in series [10] of 5.6 nM.

In series [7], `Clc1cccc(Cl)c1CO/N=C/c1cc[n+](CCC[n+]2ccc(/C=N/OCc3c(Cl)cccc3Cl)cc2)cc1` came in with an Activity of 55%. Moreover, in [4], the IC50 came out at 6000 nM.

`c1ccc2c(NCCc3ccc(OCCCN4CCCCC4)cc3)c3c(nc2c1)CCCC3`: in series [10], the Ki amounted to 0.33 nM. For the same molecule, the IC50 in series [4] amounted to 2.6 nM.

Turning to `Fc1ccc(-c2cncc(CNC[C@H]3CCc4ccccc4O3)c2)cc1` [SARIZOTAN], the IC50 in [11], in series [12], in series [10], in series [13] and in series [14] was < 6 nM throughout.

On to `CN(CCN(C)Cc1cc(O[C@@H]2O[C@H](CO)[C@@H](O)[C@H](O)[C@H]2O)cc(C(C)(C)C)c1O)Cc1cc(O[C@H]2O[C@@H](CO)[C@H](O)[C@@H](O)[C@@H]2O)cc(C(C)(C)C)c1O`, for which the IC50 in [8] was > 50%.

`C#CCN[C@@H]1CCc2ccc(OC(=O)N(C)CC)cc21` [LADOSTIGIL]: the IC50 in series [5] came out at 120000 nM; in series [6], 85000 nM; in series [4], 52400 nM.

Consider `O=C(CCc1c[nH]c2ccccc12)NCCCCCCNc1c2c(nc3cc(Cl)ccc13)CCCC2`, for which the results for the IC50 in series [7] and in series [4] were 2000 nM and 0.02 nM, respectively.

In the case of `COc1ccccc1CNCCCNCCCNCCC[n+]1c(-c2ccccc2)c2cc(N)ccc2c2ccc(N)cc21`, the IC50 in series [4] was 952 nM.

Consider `Clc1cccc(Cl)c1CO/N=C/c1cc[n+](CCCc2ccccc2)cc1`, for which the Activity in [7] amounted to 60%. Besides, the IC50 in series [4] was 180 nM.

On to `CCN(CCCCCCNC1=CC(=O)C(NCCCCCCN(CC)Cc2ccccc2OC)=CC1=O)Cc1ccccc1OC` [MEMOQUIN], for which the figures for the IC50 in series [15] and in [16] were 5930 nM and 108 nM, respectively.

A word on the Kb: it is the equilibrium dissociation constant of an antagonist, usually derived from a functional assay. With `COc1ccccc1CN(C)CCCCCC(=O)N(C)CCCCCCCCN(C)C(=O)CCCCCN(C)Cc1ccccc1OC`, the Kb in series [17] was 410 nM.

With `C#CCN[C@@H]1CCc2cc(Cl)c(OC(=O)N(C)CCC)cc21`, the IC50 in series [5] turned out to be 32000 nM; in series [6], 375000 nM; in series [4], 43900 nM.

Take `CCN(CCCCCC(=O)N1CCC(C2CCN(C(=O)CCCCCN(CC)Cc3ccccc3OC)CC2)CC1)Cc1ccccc1OC`: the antagonist equilibrium constant (Kb) in series [17] was 660 nM.

On to `C#CCN1CCN(Cc2ccnc3c(O)cccc23)CC1`, for which the IC50 in series [5] is 64200 nM; in series [6], 300000 nM.

With `C#CCNCc1ccnc2c(O)cccc12`, the IC50 in series [5] amounted to 4240 nM; in series [6], 2390 nM.

In the case of `O=C(O)CN(CCN(CC(=O)O)CC(=O)Nc1ccc(-c2nc3ccccc3s2)cc1)CCN(CC(=O)O)CC(=O)Nc1ccc(-c2nc3ccccc3s2)cc1`, in series [18], the IC50 is recorded as > 50%.

B1: Quinone oxidoreductase (Homo sapiens), Q08257 (protein)
chain: MATGQKLMRAVRVFEFGGPEVLKLRSDIAVPIPKDHQVLIKVHACGVNPVETYIRSGTYSRKPLLPYTPGSDVAGVIEAVGDNASAFKKGDRVFTSSTISGGYAEYALAADHTVYKLPEKLDFKQGAAIGIPYFTAYRALIHSACVKAGESVLVHGASGGVGLAACQIARAYGLKILGTAGTEEGQKIVLQNGAHEVFNHREVNYIDKIKKYVGEKGIDIIIEMLANVNLSKDLSLLSHGGRVIVVGSRGTIEINPRDTMAKESSIIGVTLFSSTKEEFQQYAAALQAGMEIGWLKPVIGSQYPLEKVAEAHENIIHGSGATGKMILLL
Broadly, the Km is the substrate concentration at which the rate is half of its maximum. Consider B1, for which the Km in [19] came to 12.7 µM.
